Values after ≈ are worked out from the molar mass of the structure shown. One block for each compound: values may come before it.
What was measured:
Assay in all cases: ≥ marks a high value that may be exact or a test limit, other limits are often not marked, values filed in µg/mL are converted to µM
[1] = test system: Staphylococcus aureus ATCC 29213
[2] = test system: Staphylococcus epidermidis ATCC 12228
Candida albicans MDM8 = test system: Candida albicans MDM8
[3] = test system: Serratia marcescens ATCC 4112
Micrococcus luteus A270 = test system: Micrococcus luteus A270
[4] = test system: Candida tropicalis IOC 4560
[5] = test system: Bacillus megaterium ATCC 10778
Escherichia coli SBS 363 = test system: Escherichia coli SBS 363
[6] = test system: Enterobacter cloacae beta-12
[7] = test system: Pseudomonas aeruginosa ATCC 27853
[8] = test system: Bacillus subtilis ATCC 6633
[9] = test system: Escherichia coli ATCC 25922
[10] = test system: Batrachochytrium dendrobatidis JEL-197
[11] = test system: Staphylococcus aureus NCTC 8325
[12] = test system: Candida albicans ATCC 90028
[13] = test system: Escherichia coli ATCC 25726
[14] = test system: Staphylococcus aureus ATCC 25923
Escherichia coli B = test system: Escherichia coli B
Staphylococcus aureus = test system: Staphylococcus aureus
Pseudomonas aeruginosa = test system: Pseudomonas aeruginosa
Bacillus subtilis 168 = test system: Bacillus subtilis 168
[15] = test system: Staphylococcus aureus SH1000
[16] = test system: Staphylococcus aureus ATCC 43300
[17] = test system: Acinetobacter baumannii ATCC 19606
[18] = test system: Cryptococcus neoformans ATCC 208821
[19] = test system: Klebsiella pneumoniae ATCC 700603
[20] = test system: Cryptococcus neoformans ATCC 32264
[21] = test system: Candida albicans ATCC 10231

MIC [9]: > 19 µM
MIC [16]: > 19 µM
MIC [17]: 1 µM (≈ 1.62 µg/mL)
MIC [12]: 12 µM (≈ 19.4 µg/mL)
MIC [18]: 1 µM (≈ 1.62 µg/mL)
MIC [15]: ≥ 33 µM
MIC [7]: > 19 µM
MIC [19]: > 19 µM
SMILES: CC(C)C[C@H](NC(=O)CN)C(=O)N[C@@H](CC(C)C)C(=O)N[C@@H](CCCCN)C(=O)N[C@@H](CC(C)C)C(=O)N[C@@H](CC(C)C)C(=O)N[C@@H](CCCCN)C(=O)N[C@@H](CCCCN)C(=O)N[C@@H](CC(C)C)C(=O)N[C@@H](CC(C)C)C(=O)N[C@@H](CCCCN)C(=O)N[C@@H](CC(C)C)C(=O)N[C@@H](CC(C)C)C(=O)N[C@@H](CCCCN)C(N)=O [GLLKLLKKLLKLLK]

MIC [1]: > 50 µM
MIC [2]: > 50 µM
MIC (Candida albicans MDM8): 12.5 µM (≈ 18.3 µg/mL)
MIC [3]: ≥ 50 µM
MIC (Micrococcus luteus A270): 25 µM (≈ 36.5 µg/mL)
MIC [4]: 25 µM (≈ 36.5 µg/mL)
MIC [5]: 6.3 µM (≈ 9.2 µg/mL)
MIC (Escherichia coli SBS 363): ≥ 50 µM
MIC [6]: ≥ 50 µM
SMILES: CC(C)C[C@H](NC(=O)[C@H](C)NC(=O)CNC(=O)[C@H](CC(C)C)NC(=O)[C@@H](N)CCCCN)C(=O)N[C@@H](Cc1c[nH]c2ccccc12)C(=O)N[C@@H](CC(N)=O)C(=O)N[C@H](C(=O)N[C@@H](C)C(=O)N[C@@H](CCCCN)C(=O)N[C@@H](CO)C(=O)N[C@@H](CCCCN)C(=O)N[C@@H](Cc1ccccc1)C(N)=O)C(C)C [KLGALWNVAKSKF]

MIC [9]: 11 µM (≈ 16.3 µg/mL)
MIC [16]: 22 µM (≈ 32.5 µg/mL)
MIC [17]: 5 µM (≈ 7.39 µg/mL)
MIC [12]: 22 µM (≈ 32.5 µg/mL)
MIC [18]: 11 µM (≈ 16.3 µg/mL)
MIC [15]: 10 µM (≈ 14.8 µg/mL)
MIC [7]: > 22 µM
MIC [19]: 22 µM (≈ 32.5 µg/mL)
SMILES: CC(C)C[C@H](NC(=O)[C@H](C)NC(=O)CNC(=O)[C@@H](NC(=O)[C@@H](NC(=O)[C@H](CCCCN)NC(=O)[C@H](CCCCN)NC(=O)[C@H](CC(C)C)NC(=O)[C@H](CC(C)C)NC(=O)[C@H](CCCCN)NC(=O)[C@H](CC(C)C)NC(=O)[C@H](CC(C)C)NC(=O)[C@@H](N)CCCCN)C(C)C)C(C)C)C(=O)NCC(N)=O [KLLKLLKKVVGALG]

MIC [20]: ≥ 200 µM
MIC [21]: 200 µM (≈ 274 µg/mL)
SMILES: NCCCC[C@H](NC(=O)[C@H](CCCCN)NC(=O)[C@H](Cc1c[nH]c2ccccc12)NC(=O)[C@H](CCCCN)NC(=O)[C@H](CCCN=C(N)N)NC(=O)[C@H](CCCN=C(N)N)NC(=O)[C@H](Cc1c[nH]c2ccccc12)NC(=O)[C@H](CCCCN)NC(=O)[C@@H](N)CCCN=C(N)N)C(N)=O [RKWRRKWKK]

MIC [20]: 25 µM (≈ 37.9 µg/mL)
MIC [21]: 50 µM (≈ 75.7 µg/mL)
SMILES: NC(=O)CC[C@H](NC(=O)[C@H](Cc1c[nH]c2ccccc12)NC(=O)[C@H](CCCN=C(N)N)NC(=O)[C@H](CCCN=C(N)N)NC(=O)[C@H](Cc1c[nH]c2ccccc12)NC(=O)[C@H](Cc1c[nH]c2ccccc12)NC(=O)[C@H](CCCN=C(N)N)NC(=O)[C@@H](N)Cc1c[nH]c2ccccc12)C(=O)N[C@@H](CCCN=C(N)N)C(N)=O [WRWWRRWQR]

More lines, now with the values behind:

SMILES: CC(C)C[C@H](NC(=O)[C@H](C)NC(=O)CNC(=O)[C@H](CC(C)C)NC(=O)[C@@H](N)Cc1ccccc1)C(=O)N[C@@H](Cc1c[nH]c2ccccc12)C(=O)N[C@@H](CCCCN)C(=O)N[C@H](C(=O)N[C@@H](C)C(=O)N[C@@H](CCCCN)C(=O)N[C@@H](CCCCN)C(=O)N[C@H](C(=O)N[C@@H](Cc1ccccc1)C(N)=O)C(C)C)C(C)C [FLGALWKVAKKVF]
MIC [1]: 0.8 µM (≈ 1.2 µg/mL)
MIC [2]: 6.3 µM (≈ 9.49 µg/mL)
MIC (Candida albicans MDM8): 1.6 µM (≈ 2.41 µg/mL)
MIC [3]: 0.2 µM (≈ 0.301 µg/mL)
MIC (Micrococcus luteus A270): 0.8 µM (≈ 1.2 µg/mL)
MIC [4]: 0.8 µM (≈ 1.2 µg/mL)
MIC [5]: 0.8 µM (≈ 1.2 µg/mL)
MIC (Escherichia coli SBS 363): 3.1 µM (≈ 4.67 µg/mL)
MIC [6]: 6.3 µM (≈ 9.49 µg/mL)

SMILES: CC(C)C[C@H](NC(=O)[C@H](C)NC(=O)CNC(=O)[C@H](CC(C)C)NC(=O)[C@@H](N)Cc1ccccc1)C(=O)N[C@@H](Cc1c[nH]c2ccccc12)C(=O)N[C@@H](CC(N)=O)C(=O)N[C@H](C(=O)N[C@@H](C)C(=O)N[C@@H](CCCCN)C(=O)N[C@@H](CO)C(=O)N[C@@H](CC(C)C)C(=O)N[C@@H](Cc1ccccc1)C(N)=O)C(C)C [FLGALWNVAKSLF]
MIC [1]: 0.8 µM (≈ 1.17 µg/mL)
MIC (Candida albicans MDM8): 3.1 µM (≈ 4.54 µg/mL)
MIC [3]: 0.4 µM (≈ 0.586 µg/mL)
MIC (Micrococcus luteus A270): 0.8 µM (≈ 1.17 µg/mL)
MIC [4]: 3.1 µM (≈ 4.54 µg/mL)
MIC [5]: 3.1 µM (≈ 4.54 µg/mL)
MIC (Escherichia coli SBS 363): 0.8 µM (≈ 1.17 µg/mL)
MIC [7]: > 50 µM
MIC [8]: 0.8 µM (≈ 1.17 µg/mL)
MIC [6]: ≥ 50 µM

SMILES: CC[C@H](C)[C@H](NC(=O)[C@@H]1CCCN1C(=O)[C@H](CC(C)C)NC(=O)[C@@H](N)Cc1ccccc1)C(=O)N[C@@H](CC(C)C)C(=O)N[C@@H](C)C(=O)N[C@@H](CO)C(=O)N[C@@H](CC(C)C)C(=O)N[C@@H](C)C(=O)N[C@@H](C)C(=O)N[C@@H](CCCCN)C(=O)N[C@@H](CC(C)C)C(=O)NCC(=O)N1CCC[C@H]1C(=O)N[C@@H](CCCCN)C(=O)N[C@@H](CC(C)C)C(=O)N[C@@H](Cc1ccccc1)C(=O)N[C@H]1CSSC[C@@H](C(=O)O)NC(=O)[C@H](CCCCN)NC(=O)[C@H](CCCCN)NC(=O)[C@H]([C@@H](C)O)NC(=O)[C@H](C(C)C)NC(=O)[C@H](CC(C)C)NC1=O [FLPILASLAAKLGPKLFCLVTKKC]
MIC [9]: 16 µM (≈ 41.2 µg/mL)
MIC [10]: 6.25 µM (≈ 16.1 µg/mL)
MIC [11]: 4 µM (≈ 10.3 µg/mL)
MIC [12]: 16 µM (≈ 41.2 µg/mL)

SMILES: CC[C@H](C)[C@H](NC(=O)CN)C(=O)N[C@@H](CC(C)C)C(=O)N[C@@H](CO)C(=O)N[C@@H](CO)C(=O)N[C@@H](Cc1ccccc1)C(=O)N[C@@H](CCCCN)C(=O)N[C@@H](CC(=O)O)C(=O)N[C@H](C(=O)N[C@@H](C)C(=O)N[C@@H](CCCCN)C(=O)NCC(=O)N[C@H](C(=O)N[C@@H](C)C(=O)N[C@@H](CCCCN)C(=O)N[C@@H](CC(N)=O)C(=O)N[C@H](C(=O)N[C@@H](C)C(=O)N[C@@H](C)C(=O)N[C@@H](CCC(N)=O)C(=O)N[C@@H](CC(C)C)C(=O)N[C@@H](CC(C)C)C(=O)N[C@@H](CC(=O)O)C(=O)N[C@@H](CCCCN)C(=O)N[C@@H](CC(C)C)C(=O)N[C@@H](CCCCN)C(=O)N[C@H]1CSSC[C@@H](C(=O)O)NC(=O)CNC(=O)[C@H]([C@@H](C)O)NC(=O)[C@H]([C@@H](C)CC)NC(=O)[C@H](CCCCN)NC1=O)C(C)C)C(C)C)C(C)C [GILSSFKDVAKGVAKNVAAQLLDKLKCKITGC]
MIC [10]: ≥ 50 µM
MIC [13]: 10 µM (≈ 33.2 µg/mL)
MIC [14]: 20 µM (≈ 66.4 µg/mL)

SMILES: CC[C@H](C)[C@H](NC(=O)[C@H](CCCCN)NC(=O)[C@H](CCCCN)NC(=O)[C@H](CC(C)C)NC(=O)[C@H](CC(C)C)NC(=O)[C@H](CO)NC(=O)[C@H](CCSC)NC(=O)[C@H](Cc1c[nH]c2ccccc12)NC(=O)[C@H](CCCCN)NC(=O)CN)C(=O)N[C@@H](CC(C)C)C(=O)N[C@@H](CCCCN)C(N)=O [GKWMSLLKKILK]
MIC (Escherichia coli B): 2.7 µM (≈ 3.9 µg/mL)
MIC (Staphylococcus aureus): 6.3 µM (≈ 9.1 µg/mL)
MIC (Pseudomonas aeruginosa): 13.8 µM (≈ 19.9 µg/mL)
MIC (Bacillus subtilis 168): 1.2 µM (≈ 1.73 µg/mL)

SMILES: CC[C@H](C)[C@H](NC(=O)[C@H](CC(=O)O)NC(=O)[C@H](Cc1ccccc1)NC(=O)[C@H](CC(C)C)NC(=O)CN)C(=O)N[C@@H](CC(C)C)C(=O)N[C@@H](CCCCN)C(=O)N[C@@H](CCCCN)C(=O)N[C@@H](CC(C)C)C(=O)N[C@@H](CC(C)C)C(=O)N[C@@H](CCCCN)C(=O)N[C@@H](CC(C)C)C(=O)N[C@@H](CC(C)C)C(=O)N[C@@H](CCCCN)C(N)=O [GLFDILKKLLKLLK]
MIC [15]: ≥ 100 µM
